From patent US20230099441A1, “HETEROCYCLIC COMPOUND, APPLICATION THEREOF, AND COMPOSITION CONTAINING SAME” (GenEros Biopharma Ltd., priority 2019, published 2023)

Assays:
[1] = system: STAT5 Y694 phosphorylation; experiment: Protein electrophoresis and blotting of STAT5 Y694 phosphorylation in Jurkat cells stimulated with human interferon beta; assay type: cell-based; conditions: for Inhibiting Ratio (0% for vehicle control): 1 hour pretreatment, 20 ng/ml human interferon beta 30 minutes, pSTAT5/GAPDH
How it was run: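 Serum-free Jurkat cells pretreated with compound 1 h, then stimulated with 20 ng/ml human interferon beta for 30 min at 37° C. pSTAT5 measured by western blot with chemiluminescence, normalized to GAPDH and expressed as percent of DMSO control.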

[2] = system: STAT5 Y694 phosphorylation; experiment: HTRF experiment: STAT5 Y694 phosphorylation in Hela cells stimulated with human interferon beta; assay type: cell-based; conditions: 2 hours pretreatment, 10 nM human interferon beta 30 minutes
[3] = Body weight of animals in the mouse collagen-induced arthritis model; assay type: in vivo; conditions: oral, X8 1 mg/kg once a day; for body weight of animals, Mean/g: mean of group, Methotrexate 0.25 mg/kg once a week, Tofacitinib 5 mg/kg once a day
Source text: Sixty male DBA/1J mice (9-10 weeks old, H-2q haplotype) were acclimatized in a standard animal room for one week and then randomly divided into 5 groups. Except for the healthy control group, the rest were inoculated with collagen antigen injection, and then received oral treatment with different compounds. The brief procedure was to mix bovine type II collagen (purchased from Chondrex, 20021) with an equal volume of Freund's complete adjuvant (purchased from Sigma, F5881), the concentration was 4 mg/ml, and it was treated with a homogenizer at a speed of 20,000 revolutions/min for 5-10 minutes. A needle was inserted between the left side of the dorsal caudal artery and the lateral vein of the mouse, and 50 microliters of modeling agent was injected subcutaneously. 21 days after the first injection, another injection was injected between the right side of the dorsal tail artery and the lateral vein of the mouse. After the first injection, oral administration was started. The drug was formulated with […] PEG300, and it was prepared for immediate use. […] The total score was between 0-12 points, and the swelling of the foot after vaccination was not calculated.

SMILES: O=C(Cc1ccc(C(F)(F)F)cc1)N1CCC(n2c(=O)[nH]c3ccccc32)CC1 [Example X8, 1-(1-(2-(4-(trifluoromethyl)phenyl)acetyl)piperidin-4-yl)-1H-benzo[d]imidazole-2(3H)-one]
- Inhibiting Ratio (0% for vehicle control) ([1]; 1 μM): 6.9%
- Inhibiting Ratio (0% for vehicle control) ([1]; 10 μM): 31.4%
- Inhibiting Ratio (0% for vehicle control) ([1]; 100 μM): 95.6%
- Example of Effect 1: Inhibiting Ability (Protein Electrophoresis and Blotting) ([1]; observed pSTAT5 bands at 10 μM and 100 μM): +
- Example of Effect 3: Inhibiting Ratio@10 μM (HTRF Experiment) [2]: 22.60%
- body weight of animals, Mean/g ([3]; day 0): 21.50 g
- body weight of animals, Mean/g ([3]; day 4): 21.52 g
- body weight of animals, Mean/g ([3]; day 7): 21.93 g
- body weight of animals, Mean/g ([3]; day 11): 21.90 g
- body weight of animals, Mean/g ([3]; day 14): 21.92 g
- body weight of animals, Mean/g ([3]; day 18): 22.23 g
- body weight of animals, Mean/g ([3]; day 20): 22.50 g
- body weight of animals, Mean/g ([3]; day 25): 22.07 g
- body weight of animals, Mean/g ([3]; day 28): 21.82 g
- body weight of animals, Mean/g ([3]; day 31): 21.71 g
- body weight of animals, Mean/g ([3]; day 33): 21.82 g
- body weight of animals, Mean/g ([3]; day 35): 21.55 g
- body weight of animals, Mean/g ([3]; day 38): 21.71 g
- body weight of animals, Mean/g ([3]; day 40): 21.64 g
- body weight of animals, Mean/g ([3]; day 42): 21.61 g
- body weight of animals, Mean/g ([3]; day 45): 21.98 g
- effect on body weight of animals (in words) ([3]; whole experiment, days 0-45, methotrexate 0.25 mg/kg once a week, tofacitinib 5 mg/kg once a day): no significant effect on body weight of animals, and no drastic changes were seen
